# According to patent US6683090B1 (priority 1999, dated 2004):
# Biological target: α7 nAChR subtype (Rattus norvegicus, UniProt Q05941)
# Assay type: binding
# Details: read-out: KD of radioligand
# α7 nAChR subtype, sequence (Q05941 23-502 limits assumed): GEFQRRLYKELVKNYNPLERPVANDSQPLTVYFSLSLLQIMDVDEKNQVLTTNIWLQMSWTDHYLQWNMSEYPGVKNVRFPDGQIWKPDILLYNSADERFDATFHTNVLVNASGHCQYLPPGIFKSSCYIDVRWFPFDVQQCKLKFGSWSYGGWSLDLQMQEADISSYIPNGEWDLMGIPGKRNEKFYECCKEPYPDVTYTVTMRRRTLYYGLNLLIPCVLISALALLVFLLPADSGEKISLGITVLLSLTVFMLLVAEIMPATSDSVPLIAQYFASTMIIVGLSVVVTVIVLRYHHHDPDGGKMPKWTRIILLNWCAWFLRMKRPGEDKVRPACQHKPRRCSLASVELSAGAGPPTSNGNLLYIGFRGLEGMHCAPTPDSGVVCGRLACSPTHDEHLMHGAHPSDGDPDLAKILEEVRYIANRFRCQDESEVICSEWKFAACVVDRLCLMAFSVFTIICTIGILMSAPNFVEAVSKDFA
substance,measurement,value
125I-α-Bungarotoxin [^125I-α-BTX],Kd,1.67 nM
